Reference: US4888333A, “Allymercaptoacetylsydnonimines, processes for their preparation, and their use” (Cassella Aktiengessellschaft, priority 1987, dated 1989)

These molecules were tested on pulmonary artery of the guinea pig (assay: Relaxant effect: inhibition of CaCl2-triggered contraction of potassium-depolarized spiral strips of the pulmonary artery). Conditions: Cavia porcellus, calcium-free Tyrode's solution, 40 mmol/l potassium, 0.5 mmol/l CaCl2, mean of 4 to 6 vessel strips, read-out: IC50 (concentration of the test substance which inhibits contraction by 50%).
Format: cell-based
Text: The pharmacological action of the compounds of the formula I was established using a modification of the method of Godfraind and Kaba (Arch. Int. Pharmacodyn. Ther. 196, (Suppl) 35 to 49, 1972) and of Schumann et al. (Naunyn-Schmiedeberg's Arch. Pharmacol. 289, 409 to 481, 1975). This entails spiral strips of the pulmonary artery of the guinea pig being equilibrated in calcium-free Tyrode's solution and then depolarized with 40 mmol/l of potassium. Addition of 0.5 mmol/l of CaCl2 then triggers a contraction. The relaxant effect of the test substance is established by cumulative addition of concentrations in 1/2 log 10 steps. The concentration of the test substance which inhibits contraction by 50% (=IC50, mol/l) is established from the concentration/effect graph (abscissa: -log mol/l test substance, ordinate: % inhibition of the maximum contraction, mean of 4 to 6 vessel strips).

SMILES	IC50 [µM]
C=CCSCC(=O)[N-]c1c[n+](N2CCS(=O)(=O)CC2)no1 [Example 5, 3-(1,1-Dioxotetrahydro-1,4-thiazin-4-yl)-N-allylmercaptoacetylsydnonimine]	30
CCOC(=O)[N-]c1cn(N2CCOCC2)n[o+]1 [Molsidomine, N-ethoxycarbonyl-3-morpholinosydnonimine, reference compound]	100
C=CCSCC(=O)[N-]c1c[n+](N2CCN(S(C)(=O)=O)CC2)no1 [Example 3, 3-(4-Methylsulphonyl-1-piperazinyl)-N-allylmercaptoacetylsydnonimine]	30
C=CCSCC(=O)[N-]c1c[n+](N2CCN(C(=O)OCC)CC2)no1 [Example 2, 3-(4-Ethoxycarbonyl-1-piperazinyl)-N-allylmercaptoacetylsydnonimine]	80

Now from value to molecule:

IC50 [µM]	SMILES
30	C=CCSCC(=O)[N-]c1c[n+](N(C)C)no1 [Example 7, 3-Dimethylamino-N-allylmercaptoacetylsydnonimine]
10	C=CCSCC(=O)[N-]c1c[n+](N(C)C2CCS(=O)(=O)C2)no1 (stereo not shown) [Example 6, 3-(N-Methyl-N-1,1-dioxotetrahydro-3-thienylamino)-N-allylmercaptoacetylsydnonimine]
20	C=CCSCC(=O)[N-]c1c[n+](N2CCCCC2)no1 [Example 8, 3-Piperidino-N-allylmercaptoacetylsydnonimine]
20	C=CCSCC(=O)[N-]c1c[n+](N2CCOCC2)no1 [Example 1, 3-Morpholino-N-allylmercaptoacetylsydononimine]
30	C=CCSCC(=O)[N-]c1c[n+](N2CCN(S(=O)(=O)N(C)C)CC2)no1 [Example 4, 3-(4-Dimethylaminosulphonyl-1-piperazinyl)-N-allylmercaptoacetylsydnonimine]

Same assay, conditions: calcium-free Tyrode's solution, 40 mmol/l potassium, 0.5 mmol/l CaCl2, mean of 4 to 6 vessel strips, read-out: IC50 (concentration of the test substance which inhibits contraction by 50%)

IC50 [µM]	SMILES
> 100	CCOC(=O)[N-]c1cn(N2CCOCC2)n[o+]1 [Molsidomine, N-ethoxycarbonyl-3-morpholinosydnonimine, reference compound]
